The results in this text go back to BindingDB's records for doi:10.1021/jm00078a018 (Merck Research Laboratories, 1994).

By IC50 is commonly meant the concentration that inhibits the measured activity by half.

Structures can show the parent of a compound that is named as a salt.

This assay is described as follows: Inhibition of binding of [125I]-CCK-8 to the cholecystokinin type B receptor.
`Cc1cccc(NC(=O)NC2N=C(c3ccccc3)c3ccccc3N(CCN(C)C)C2=O)c1` (stereo not given) [1-[1-(2-Dimethylamino-ethyl)-2-oxo-5-phenyl-2,3-dihydro-1H-benzo[e][1,4]diazepin-3-yl]-3-m-tolyl-urea] returned a half-inhibitory concentration (IC50) of 26 nM.

The compound `Cc1cccc(NC(=O)NC2N=C(c3ccccc3)c3ccccc3N(CCO)C2=O)c1` (stereo not given) [1-[1-(2-Hydroxy-ethyl)-2-oxo-5-phenyl-2,3-dihydro-1H-benzo[e][1,4]diazepin-3-yl]-3-m-tolyl-urea] gave an IC50 of 44 nM.

On to `O=C(Nc1ccc(Cl)cc1)NC1N=C(c2ccccc2)c2ccccc2N(C[C@@H](O)CCl)C1=O` (stereo not given in full) [1-[1-(3-Chloro-2-hydroxy-propyl)-2-oxo-5-phenyl-2,3-dihydro-1H-benzo[e][1,4]diazepin-3-yl]-3-(4-chloro-phenyl)-urea], for which the IC50 was 6 nM.

`Cc1cccc(NC(=O)NC2N=C(c3ccccc3)c3ccccc3N(Cc3nnc(C)[nH]3)C2=O)c1` (stereo not given) [1-[1-(5-Methyl-4H-[1,2,4]triazol-3-ylmethyl)-2-oxo-5-phenyl-2,3-dihydro-1H-benzo[e][1,4]diazepin-3-yl]-3-m-tolyl-urea] returned a half-inhibitory concentration (IC50) of 9.7 nM.

In the case of `CN1C(=O)C(NC(=O)NCc2cccc(C(C)(C)O)c2)N=C(c2ccccc2)c2ccccc21` (stereo not given) [1-[3-(1-Hydroxy-1-methyl-ethyl)-benzyl]-3-(1-methyl-2-oxo-5-phenyl-2,3-dihydro-1H-benzo[e][1,4]diazepin-3-yl)-urea], the IC50 was found to be 5.9 nM. Compared with the last compound, the IC50 is about 1.6-fold lower.

Turning to `CN1C(=O)C(NC(=O)NC(C)(C)C)N=C(c2ccccc2)c2ccccc21` (stereo not given) [1-tert-Butyl-3-(1-methyl-2-oxo-5-phenyl-2,3-dihydro-1H-benzo[e][1,4]diazepin-3-yl)-urea], the IC50 is 38000 nM.

In the case of `Cc1cccc(NC(=O)NC2N=C(c3ccccc3)c3ccccc3N(CC(=O)N3CCN(C)CC3)C2=O)c1` (stereo not given) [1-{1-[2-(4-Methyl-piperazin-1-yl)-2-oxo-ethyl]-2-oxo-5-phenyl-2,3-dihydro-1H-benzo[e][1,4]diazepin-3-yl}-3-m-tolyl-urea; hydrochloride], the IC50 is 3.5 nM. Compared with the last compound, the IC50 is about 11000-fold lower.

Compound `Cc1cccc(NC(=O)NC2N=C(c3ccccc3)c3ccccc3N(CC(=O)ON3CCC[C@@H]3C(=O)O)C2=O)c1` (stereo not given in full) [1-{2-[2-Oxo-5-phenyl-3-(3-m-tolyl-ureido)-2,3-dihydro-benzo[e][1,4]diazepin-1-yl]-acetoxy}-pyrrolidine-2-carboxylic acid] had an IC50 of 130 nM. This IC50 is about 37-fold higher than that of the compound before.

With `Cc1cccc(NC(=O)NC2N=C(c3ccccc3)c3ccccc3N(CC(=O)Nc3ccncc3)C2=O)c1` (stereo not given) [2-[2-Oxo-5-phenyl-3-(3-m-tolyl-ureido)-2,3-dihydro-benzo[e][1,4]diazepin-1-yl]-N-pyridin-4-yl-acetamide], the 50% inhibitory concentration (IC50) is 48 nM.

`Cc1ccc(NC(=O)NC2N=C(c3ccccc3)c3ccccc3N(CC(=O)Nc3ccncc3)C2=O)cc1` (stereo not given) [2-[2-Oxo-5-phenyl-3-(3-p-tolyl-ureido)-2,3-dihydro-benzo[e][1,4]diazepin-1-yl]-N-pyridin-4-yl-acetamide] yielded a concentration for half-maximal inhibition (IC50) of 190 nM.

On to `CCN(CC)C(=O)CN1C(=O)C(NC(=O)Nc2ccccc2Cl)N=C(c2ccccc2)c2ccccc21` (stereo not given) [2-{3-[3-(2-Chloro-phenyl)-ureido]-2-oxo-5-phenyl-2,3-dihydro-benzo[e][1,4]diazepin-1-yl}-N,N-diethyl-acetamide], for which the IC50 stood at 3.8 nM.

`CCN(CC)C(=O)CN1C(=O)C(NC(=O)Nc2ccc(Cl)cc2)N=C(c2ccccc2)c2ccccc21` (stereo not given) [2-{3-[3-(4-Chloro-phenyl)-ureido]-2-oxo-5-phenyl-2,3-dihydro-benzo[e][1,4]diazepin-1-yl}-N,N-diethyl-acetamide] showed an IC50 of 0.6 nM.

Take `CCN(CC)C(=O)C(C)N1C(=O)C(NC(=O)Nc2ccc(Cl)cc2)N=C(c2ccccc2)c2ccccc21` (stereo not given) [2-{3-[3-(4-Chloro-phenyl)-ureido]-2-oxo-5-phenyl-2,3-dihydro-benzo[e][1,4]diazepin-1-yl}-N,N-diethyl-propionamide]: the IC50 worked out at 22 nM. Compared with the last compound, the IC50 is about 37-fold higher.

In turn, `CCNC(=O)CN1C(=O)C(NC(=O)Nc2ccc(Cl)cc2)N=C(c2ccccc2)c2ccccc21` (stereo not given) [2-{3-[3-(4-Chloro-phenyl)-ureido]-2-oxo-5-phenyl-2,3-dihydro-benzo[e][1,4]diazepin-1-yl}-N-ethyl-acetamide] had a half-maximal inhibitory concentration (IC50) of 11 nM.

Compound `CN1C(=O)C(NC(=O)Nc2cccc(C(=O)O)c2)N=C(c2ccccc2)c2ccccc21` (stereo not given) [3-[3-(1-Methyl-2-oxo-5-phenyl-2,3-dihydro-1H-benzo[e][1,4]diazepin-3-yl)-ureido]-benzoic acid] gave an IC50 of 9.7 nM. The IC50 values of the last two compounds are within 1.5-fold of each other.

`COC(=O)c1cccc(NC(=O)N[C@@H]2N=C(c3ccccc3)c3ccccc3N(C)C2=O)c1` [3-[3-((R)-1-Methyl-2-oxo-5-phenyl-2,3-dihydro-1H-benzo[e][1,4]diazepin-3-yl)-ureido]-benzoic acid methyl ester]: the 50% inhibitory concentration (IC50) stood at 8 nM. The IC50 values of the last two compounds are within 1.5-fold of each other.

For the compound `CCOC(=O)CCN1C(=O)C(NC(=O)Nc2cccc(OC)c2)N=C(c2ccccc2)c2ccccc21` (stereo not given) [3-{3-[3-(3-Methoxy-phenyl)-ureido]-2-oxo-5-phenyl-2,3-dihydro-benzo[e][1,4]diazepin-1-yl}-propionic acid ethyl ester], the IC50 was found to be 1 nM.

Take `COc1cccc(NC(=O)NC2N=C(c3ccccc3)c3ccccc3N(CCC(=O)O)C2=O)c1` (stereo not given) [3-{3-[3-(3-Methoxy-phenyl)-ureido]-2-oxo-5-phenyl-2,3-dihydro-benzo[e][1,4]diazepin-1-yl}-propionic acid]: the concentration for half-maximal inhibition (IC50) came out at 250 nM.

For `CCOC(=O)CCN1C(=O)C(NC(=O)Nc2ccc(Cl)cc2)N=C(c2ccccc2)c2ccccc21` (stereo not given) [3-{3-[3-(4-Chloro-phenyl)-ureido]-2-oxo-5-phenyl-2,3-dihydro-benzo[e][1,4]diazepin-1-yl}-propionic acid ethyl ester], the IC50 was 5.9 nM.

With `CN1C(=O)C(NC(=O)Nc2ccc(C(=O)O)cc2)N=C(c2ccccc2)c2ccccc21` (stereo not given) [4-[3-(1-Methyl-2-oxo-5-phenyl-2,3-dihydro-1H-benzo[e][1,4]diazepin-3-yl)-ureido]-benzoic acid], the IC50 was greater than 100 nM.

In turn, `CN1C(=O)C(NC(N)=O)N=C(c2ccccc2)c2ccccc21` (stereo not given) [(1-Methyl-2-oxo-5-phenyl-2,3-dihydro-1H-benzo[e][1,4]diazepin-3-yl)-urea] displayed an IC50 greater than 100000 nM.

On to `COc1cccc(NC(=O)NC2N=C(c3ccccc3)c3ccccc3N(CC[N+](C)(C)C)C2=O)c1` (stereo not given) [(2-{3-[3-(3-Methoxy-phenyl)-ureido]-2-oxo-5-phenyl-2,3-dihydro-benzo[e][1,4]diazepin-1-yl}-ethyl)-trimethyl-ammonium; iodide], for which the half-maximal inhibitory concentration (IC50) amounted to 1100 nM. This lies in the single-digit micromolar range.

In turn, `CN1C(=O)C(NC(=O)Nc2ccc(Cl)cc2)N=C(c2ccccc2)c2ccccc21` [(R)-1-(4-Chloro-phenyl)-3-(1-methyl-2-oxo-5-phenyl-2,3-dihydro-1H-benzo[e][1,4]diazepin-3-yl)-urea] came in with a concentration for half-maximal inhibition (IC50) of 81 nM. This IC50 is about 14-fold lower than that of the compound before.

`CCN(CC)CC(=O)OCCN1C(=O)C(NC(=O)Nc2cccc(C)c2)N=C(c2ccccc2)c2ccccc21` (stereo not given) [Diethylamino-acetic acid 2-[2-oxo-5-phenyl-3-(3-m-tolyl-ureido)-2,3-dihydro-benzo[e][1,4]diazepin-1-yl]-ethyl ester]: the concentration for half-maximal inhibition (IC50) was 5.6 nM.

Take `CCN(CC)C(=O)CN1C(=O)C(NC(=O)Nc2cccc(OC)c2)N=C(c2ccccc2)c2ccccc21` (stereo not given) [N,N-Diethyl-2-{3-[3-(3-methoxy-phenyl)-ureido]-2-oxo-5-phenyl-2,3-dihydro-benzo[e][1,4]diazepin-1-yl}-acetamide]: the IC50 is 0.22 nM. Compared with the last compound, the IC50 is about 25-fold lower.

`O=C(CN1C(=O)C(NC(=O)Nc2ccc(Cl)cc2)N=C(c2ccccc2)c2ccccc21)NCc1ccccc1` (stereo not given) [N-Benzyl-2-{3-[3-(4-chloro-phenyl)-ureido]-2-oxo-5-phenyl-2,3-dihydro-benzo[e][1,4]diazepin-1-yl}-acetamide] came in with a concentration for half-maximal inhibition (IC50) of 102 nM.

As for `Cc1cccc(NC(=O)NC2N=C(c3ccccc3)c3ccccc3N(CCOC(=O)CCC(=O)O)C2=O)c1` (stereo not given) [Succinic acid mono-{2-[2-oxo-5-phenyl-3-(3-m-tolyl-ureido)-2,3-dihydro-benzo[e][1,4]diazepin-1-yl]-ethyl} ester], the IC50 came out at 7.2 nM.

With `Cc1cccc(NC(=O)NC2N=C(c3ccccc3)c3ccccc3N(CC(=O)O)C2=O)c1` (stereo not given) [[2-Oxo-5-phenyl-3-(3-m-tolyl-ureido)-2,3-dihydro-benzo[e][1,4]diazepin-1-yl]-acetic acid], the concentration for half-maximal inhibition (IC50) amounted to 380 nM.

In turn, `CCOC(=O)CN1C(=O)C(NC(=O)c2ccccc2Cl)N=C(c2ccccc2F)c2ccccc21` (stereo not given) [[3-(2-Chloro-benzoylamino)-5-(2-fluoro-phenyl)-2-oxo-2,3-dihydro-benzo[e][1,4]diazepin-1-yl]-acetic acid ethyl ester] showed an IC50 of 3200 nM. This IC50 is about 8.4-fold higher than that of the compound before.

`CCOC(=O)CN1C(=O)C(NC(=O)N[C@@H](C)c2ccccc2)N=C(c2ccccc2)c2ccccc21` (stereo not given in full) [{2-Oxo-5-phenyl-3-[3-(1-phenyl-ethyl)-ureido]-2,3-dihydro-benzo[e][1,4]diazepin-1-yl}-acetic acid ethyl ester]: the IC50 was greater than 100 nM.

As to `CN1C(=O)C(NC(=O)Nc2cccc(CNC(=O)OC(C)(C)C)c2)N=C(c2ccccc2)c2ccccc21` (stereo not given) [{3-[3-(1-Methyl-2-oxo-5-phenyl-2,3-dihydro-1H-benzo[e][1,4]diazepin-3-yl)-ureido]-benzyl}-carbamic acid tert-butyl ester], the half-maximal inhibitory concentration (IC50) was 170 nM.

Compound `COC(=O)Cc1cccc(NC(=O)NC2N=C(c3ccccc3)c3ccccc3N(C)C2=O)c1` (stereo not given) [{3-[3-(1-Methyl-2-oxo-5-phenyl-2,3-dihydro-1H-benzo[e][1,4]diazepin-3-yl)-ureido]-phenyl}-acetic acid methyl ester] yielded a half-maximal inhibitory concentration (IC50) of 33 nM.

For `CN1C(=O)C(NC(=O)Nc2cccc(CC(=O)O)c2)N=C(c2ccccc2)c2ccccc21` (stereo not given) [{3-[3-(1-Methyl-2-oxo-5-phenyl-2,3-dihydro-1H-benzo[e][1,4]diazepin-3-yl)-ureido]-phenyl}-acetic acid], the IC50 was 4.9 nM.

`O=C(Nc1ccc(Cl)cc1)NC1N=C(c2ccccc2)c2ccccc2N(CC(=O)OCc2ccccc2)C1=O` (stereo not given) [{3-[3-(4-Chloro-phenyl)-ureido]-2-oxo-5-phenyl-2,3-dihydro-benzo[e][1,4]diazepin-1-yl}-acetic acid benzyl ester] displayed a 50% inhibitory concentration (IC50) of 44 nM.

In turn, `O=C(O)CN1C(=O)C(NC(=O)Nc2ccc(Cl)cc2)N=C(c2ccccc2)c2ccccc21` (stereo not given) [{3-[3-(4-Chloro-phenyl)-ureido]-2-oxo-5-phenyl-2,3-dihydro-benzo[e][1,4]diazepin-1-yl}-acetic acid] showed a half-maximal inhibitory concentration (IC50) of 72 nM.
